Results as given in US7964613B2 (Asahi Kasei Pharma Corporation, priority 2007, dated 2011).

System: rabbit normal intraocular pressure
Assay: Intraocular pressure reducing action
Type: in vivo, Japanese white rabbit
Conditions: Oryctolagus cuniculus, topical; 3 mM aqueous solution, 50 μl to the left eye; max IOP reduction (2, 4, 6 hours) / value immediately before administration; read-out: intraocular pressure reducing degree
Protocol: A Japanese white rabbit having a body weight of about 2 kg was placed in a positioner and naturalized for one week before the experiment. An opthalmologic local anesthesant (Benoxil) was administered to both eyes, and then intraocular pressure was measured by using a tonometer (Classic 30, Solan). A 3 mM aqueous solution of a test compound was administered in a volume of 50 μl to the left eye, and the right eye was not treated (control eye). The intraocular pressure values were measured for the left and right eyes immediately before, and 2, 4 and 6 hours after the administration of the aqueous solution of the test compound, and the difference of the measured values for the left and right eyes was considered an intraocular pressure reduction value of the test medicament at each measurement time. The largest difference of the values for the left and right eyes among the measured values at the measurement times (after 2, 4 and 6 hours) was considered the maximum intraocular pressure reduction value (max ? IOP) of each test medicament. The intraocular pressure reducing degree representing the intraocular pressure reducing action of each test medicament was calculated according to the following formula. Since rabbits show significant daily variation of intraocular pressure, daily variation is added when change of intraocular pressure is measured over time, and the intraocular pressure reducing action may be overestimated. Therefore, we used this calculation method of intraocular pressure reduction value in order to minimize the influence of the variation. Intraocular pressure reducing degree(%)=(max ? IOP/Intraocular pressure value immediately before administration)×100

| Structure (SMILES) | inhibition in vivo at 3000 µM [%] |
| --- | --- |
| O=C(CN1CCCC1=O)N[C@H]1CCN(S(=O)(=O)c2cccc3cncc(Cl)c23)C1 [Example 87, (S)-3-[2-(2-Oxopyrrolidin-1-yl)acetyl]amino-1-(4-chloro-5-isoquinolinesulfonyl)pyrrolidine] | 10 to 20 |
| O=C(CCOc1ccccc1)N[C@H]1CCN(S(=O)(=O)c2cccc3cncc(Cl)c23)C1 [Example 76, (S)-3-(3-Phenoxypropionyl)amino-1-(4-chloro-5-isoquinolinesulfonyl)pyrrolidine] | 10 to 20 |
| O=C(CNC(=O)c1ccccc1)N[C@H]1CCN(S(=O)(=O)c2cccc3cncc(Cl)c23)C1 [Example 94, (S)-3-[(2-Benzoylamino)acetyl]amino-1-(4-chloro-5-isoquinolinesulfonyl)pyrrolidine] | 10 to 20 |
| O=C(CCn1cnnn1)N[C@H]1CCN(S(=O)(=O)c2cccc3cncc(Cl)c23)C1 [Example 82, (S)-3-[3-(1H-Tetrazol-1-yl)propionyl]amino-1-(4-chloro-5-isoquinolinesulfonyl)pyrrolidine] | 5 to 10 |
| N#Cc1cncc2cccc(S(=O)(=O)N3CC[C@H](N)C3)c12 [Example 13-1, (S)-3-Amino-1-(4-cyano-5-isoquinolinesulfonyl)pyrrolidine] | 5 to 10 |
| COCCOCC(=O)N[C@H]1CCN(S(=O)(=O)c2cccc3cncc(Cl)c23)C1 [Example 98, (S)-3-[2-(2-Methoxyethoxy)acetyl]amino-1-(4-chloro-5-isoquinolinesulfonyl)pyrrolidine] | ≥ 20 |
| COCC(=O)N[C@H]1CCN(S(=O)(=O)c2cccc3cncc(F)c23)C1 [Example 115, (S)-3-(2-Methoxyacetyl)amino-1-(4-fluoro-5-isoquinolinesulfonyl)pyrrolidine] | 5 to 10 |
| CN(C)CC(=O)N[C@H]1CCN(S(=O)(=O)c2cccc3cncc(F)c23)C1 [Example 117, (S)-3-[(2-Dimethylamino)acetyl]amino-1-(4-fluoro-5-isoquinolinesulfonyl)pyrrolidine] | 5 to 10 |
| CN(C)CCOCC(=O)N[C@H]1CCN(S(=O)(=O)c2cccc3cncc(Cl)c23)C1 [Example 111, (S)-3-[2-[2-(Dimethylamino)ethoxy]acetyl]amino-1-(4-chloro-5-isoquinolinesulfonyl)pyrrolidine] | 5 to 10 |
| O=C(COc1ccc2nncn2n1)N[C@H]1CCN(S(=O)(=O)c2cccc3cncc(Cl)c23)C1 [Example 107, (S)-3-[2-([1,2,4]Triazolo[4,3-b]pyridazin-6-yloxy)acetyl]amino-1-(4-chloro-5-isoquinolinesulfonyl)pyrrolidine] | 10 to 20 |
| COCCOCCOCC(=O)N[C@H]1CCN(S(=O)(=O)c2cccc3cncc(Cl)c23)C1 [Example 99, (S)-3-[2-[2-(2-Methoxyethoxy)ethoxy]acetyl]amino-1-(4-chloro-5-isoquinolinesulfonyl)pyrrolidine] | 10 to 20 |
| CN(C)CC(=O)N(C)[C@H]1CCN(S(=O)(=O)c2cccc3cncc(Cl)c23)C1 [Example 66-1, (S)-3-[N-(2-Dimethylamino)acetyl-N-methyl]amino-1-(4-chloro-5-isoquinolinesulfonyl)pyrrolidine] | 5 to 10 |
| CN(C)CC(=O)N(C)[C@H]1CCN(S(=O)(=O)c2cccc3cncc(F)c23)C1 [Example 118, (S)-3-[N-(2-Dimethylamino)acetyl-N-methyl]amino-1-(4-fluoro-5-isoquinolinesulfonyl)pyrrolidine] | 5 to 10 |
| O=C(CCn1ccnc1)N[C@H]1CCN(S(=O)(=O)c2cccc3cncc(Cl)c23)C1 [Example 81, (S)-3-[3-(1H-Imidazol-1-yl)propionyl]amino-1-(4-chloro-5-isoquinolinesulfonyl)pyrrolidine] | 10 to 20 |
| O=C(Cn1cncn1)N[C@H]1CCN(S(=O)(=O)c2cccc3cncc(Cl)c23)C1 [Example 84, (S)-3-[2-(1H-1,2,4-Triazol-1-yl)acetyl]amino-1-(4-chloro-5-isoquinolinesulfonyl)pyrrolidine] | 10 to 20 |
| O=C(CO)N[C@H]1CCN(S(=O)(=O)c2cccc3cncc(Cl)c23)C1 [Example 74, (S)-3-(2-Hydroxyacetyl)amino-1-(4-chloro-5-isoquinolinesulfonyl)pyrrolidine] | 10 to 20 |
| COCC(COC)OCC(=O)N[C@H]1CCN(S(=O)(=O)c2cccc3cncc(Cl)c23)C1 [Example 108, (S)-3-[2-(1,3-Dimethoxypropan-2-yloxy)acetyl]amino-1-(4-chloro-5-isoquinolinesulfonyl)pyrrolidine] | ≥ 20 |
| O=C(CN1CCOCC1)N[C@H]1CCN(S(=O)(=O)c2cccc3cncc(Cl)c23)C1 [Example 88, (S)-3-[2-(Morpholin-1-yl)acetyl]amino-1-(4-chloro-5-isoquinolinesulfonyl)pyrrolidine] | 10 to 20 |
| NC(C(=O)N[C@H]1CCN(S(=O)(=O)c2cccc3cncc(Cl)c23)C1)c1ccccc1 (stereo partly drawn) [Example 106, (S)-3-[(2-Amino-2-phenyl)acetyl]amino-1-(4-chloro-5-isoquinolinesulfonyl)pyrrolidine] | ≥ 20 |
| COCCC(=O)N[C@H]1CCN(S(=O)(=O)c2cccc3cncc(Cl)c23)C1 [Example 77, (S)-3-(3-Methoxypropionyl)amino-1-(4-chloro-5-isoquinolinesulfonyl)pyrrolidine] | ≥ 20 |
| CN(C)CC(=O)N[C@H]1CCN(S(=O)(=O)c2cccc3cncc(Br)c23)C1 [Example 73, (S)-3-[(2-Dimethylamino)acetyl]amino-1-(4-bromo-5-isoquinolinesulfonyl)pyrrolidine] | 10 to 20 |
| N#CCC(=O)N[C@H]1CCN(S(=O)(=O)c2cccc3cncc(Cl)c23)C1 [Example 90, (S)-3-(2-Cyanoacetyl)amino-1-(4-chloro-5-isoquinolinesulfonyl)pyrrolidine] | 10 to 20 |
| O=C(CN1CCOC1=O)N[C@H]1CCN(S(=O)(=O)c2cccc3cncc(Cl)c23)C1 [Example 93, (S)-3-[2-(2-Oxooxazolidin-3-yl)acetyl]amino-1-(4-chloro-5-isoquinolinesulfonyl)pyrrolidine] | 10 to 20 |
| O=C(CCO)N[C@H]1CCN(S(=O)(=O)c2cccc3cncc(Cl)c23)C1 [Example 75, (S)-3-(3-Hydroxypropionyl)amino-1-(4-chloro-5-isoquinolinesulfonyl)pyrrolidine] | 10 to 20 |
| N[C@H]1CCN(S(=O)(=O)c2cccc3cncc(-c4cnoc4)c23)C1 [Example 24-1, (S)-3-Amino-1-[4-(4-isoxazolyl)-5-isoquinolinesulfonyl]pyrrolidine] | 5 to 10 |
| O=C(CNC(=O)c1cccnc1)N[C@H]1CCN(S(=O)(=O)c2cccc3cncc(Cl)c23)C1 [Example 95, (S)-3-[(2-Nicotinamino)acetyl]amino-1-(4-chloro-5-isoquinolinesulfonyl)pyrrolidine] | 10 to 20 |
| O=C(CN1CCNCC1)N[C@H]1CCN(S(=O)(=O)c2cccc3cncc(Cl)c23)C1 [Example 91, (S)-3-[2-(piperazin-1-yl)acetyl]amino-1-(4-chloro-5-isoquinolinesulfonyl)pyrrolidine] | 10 to 20 |
